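Dose response: 5 concentrations. Exposure: 48 h. Format: 96-well plates. Endpoint: linear interpolation; highest concentration if not reached. Definition used: TGI = concentration required for complete inhibition of growth.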
Experiments:
Assay in all cases: NCI-60 cell line screen, 48 h
786-0 renal = test system: 786-0 renal
A549 NSCLC = test system: A549 NSCLC
ACHN renal = test system: ACHN renal
CCRF-CEM leukemia = test system: CCRF-CEM leukemia
COLO 205 colon = test system: COLO 205 colon
DLD-1 colon = test system: DLD-1 colon
DMS 273 small cell lung = test system: DMS 273 small cell lung
EKVX NSCLC = test system: EKVX NSCLC
HCC-2998 colon = test system: HCC-2998 colon
HCT-116 colon = test system: HCT-116 colon
HCT-15 colon = test system: HCT-15 colon
HL-60(TB) leukemia = test system: HL-60(TB) leukemia
HOP-62 NSCLC = test system: HOP-62 NSCLC
HT29 colon = test system: HT29 colon
IGROV1 ovarian = test system: IGROV1 ovarian
K-562 leukemia = test system: K-562 leukemia
KM12 colon = test system: KM12 colon
KM20L2 colon = test system: KM20L2 colon
LOX IMVI melanoma = test system: LOX IMVI melanoma
LXFL 529 NSCLC = test system: LXFL 529 NSCLC
M14 melanoma = test system: M14 melanoma
M19-MEL melanoma = test system: M19-MEL melanoma
MALME-3M melanoma = test system: MALME-3M melanoma
MOLT-4 leukemia = test system: MOLT-4 leukemia
NCI-H226 lung = test system: NCI-H226 lung
NCI-H23 lung = test system: NCI-H23 lung
NCI-H460 lung = test system: NCI-H460 lung
NCI-H522 lung = test system: NCI-H522 lung
OVCAR-3 ovarian = test system: OVCAR-3 ovarian
OVCAR-4 ovarian = test system: OVCAR-4 ovarian
OVCAR-8 ovarian = test system: OVCAR-8 ovarian
RXF 393 renal = test system: RXF 393 renal
SF-268 CNS = test system: SF-268 CNS
SF-295 CNS = test system: SF-295 CNS
SF-539 CNS = test system: SF-539 CNS
SK-MEL-2 melanoma = test system: SK-MEL-2 melanoma
SK-MEL-28 melanoma = test system: SK-MEL-28 melanoma
SK-MEL-5 melanoma = test system: SK-MEL-5 melanoma
SK-OV-3 ovarian = test system: SK-OV-3 ovarian
SN12C renal = test system: SN12C renal
SNB-19 CNS = test system: SNB-19 CNS
SNB-75 CNS = test system: SNB-75 CNS
SNB-78 CNS = test system: SNB-78 CNS
SR leukemia = test system: SR leukemia
TK-10 renal = test system: TK-10 renal
U251 CNS = test system: U251 CNS
UACC-257 melanoma = test system: UACC-257 melanoma
UACC-62 melanoma = test system: UACC-62 melanoma
UO-31 renal = test system: UO-31 renal
XF 498 CNS = test system: XF 498 CNS
A498 renal = test system: A498 renal
CAKI-1 renal = test system: CAKI-1 renal
HOP-18 NSCLC = test system: HOP-18 NSCLC
HOP-92 NSCLC = test system: HOP-92 NSCLC
OVCAR-5 ovarian = test system: OVCAR-5 ovarian
RPMI-8226 leukemia = test system: RPMI-8226 leukemia
SW-620 colon = test system: SW-620 colon

Cc1nc2c(n1Cc1ccc(Cl)cc1)C(=O)c1ccccc1C2=O
TGI (786-0 renal): > 75 µM | TGI (A549 NSCLC): > 75 µM | TGI (ACHN renal): > 75 µM | TGI (CCRF-CEM leukemia): > 75 µM | TGI (COLO 205 colon): > 75 µM | TGI (DLD-1 colon): > 75 µM | TGI (DMS 273 small cell lung): > 75 µM | TGI (EKVX NSCLC): > 75 µM | TGI (HCC-2998 colon): > 75 µM | TGI (HCT-116 colon): > 75 µM | TGI (HCT-15 colon): > 75 µM | TGI (HL-60(TB) leukemia): > 75 µM | TGI (HOP-62 NSCLC): > 75 µM | TGI (HT29 colon): > 75 µM | TGI (IGROV1 ovarian): > 75 µM | TGI (K-562 leukemia): > 75 µM | TGI (KM12 colon): > 75 µM | TGI (KM20L2 colon): > 75 µM | TGI (LOX IMVI melanoma): > 75 µM | TGI (LXFL 529 NSCLC): > 75 µM | TGI (M14 melanoma): > 75 µM | TGI (M19-MEL melanoma): > 75 µM | TGI (MALME-3M melanoma): > 75 µM | TGI (MOLT-4 leukemia): > 75 µM | TGI (NCI-H226 lung): > 75 µM | TGI (NCI-H23 lung): > 75 µM | TGI (NCI-H460 lung): > 75 µM | TGI (NCI-H522 lung): > 75 µM | TGI (OVCAR-3 ovarian): > 75 µM | TGI (OVCAR-4 ovarian): > 75 µM | TGI (OVCAR-8 ovarian): > 75 µM | TGI (RXF 393 renal): > 75 µM | TGI (SF-268 CNS): > 75 µM | TGI (SF-295 CNS): > 75 µM | TGI (SF-539 CNS): > 75 µM | TGI (SK-MEL-2 melanoma): > 75 µM | TGI (SK-MEL-28 melanoma): > 75 µM | TGI (SK-MEL-5 melanoma): > 75 µM | TGI (SK-OV-3 ovarian): > 75 µM | TGI (SN12C renal): > 75 µM | TGI (SNB-19 CNS): > 75 µM | TGI (SNB-75 CNS): > 75 µM | TGI (SNB-78 CNS): > 75 µM | TGI (SR leukemia): > 75 µM | TGI (TK-10 renal): > 75 µM | TGI (U251 CNS): > 75 µM | TGI (UACC-257 melanoma): > 75 µM | TGI (UACC-62 melanoma): > 75 µM | TGI (UO-31 renal): > 75 µM | TGI (XF 498 CNS): > 75 µM

CCCCN(CCCC)C(=NCc1ccccc1)NC#N
TGI (786-0 renal): 47 µM | TGI (A498 renal): 42.6 µM | TGI (A549 NSCLC): > 100 µM | TGI (ACHN renal): 65.9 µM | TGI (CAKI-1 renal): 43.9 µM | TGI (CCRF-CEM leukemia): 37.1 µM | TGI (COLO 205 colon): 33 µM | TGI (DLD-1 colon): 47 µM | TGI (DMS 273 small cell lung): 75.7 µM | TGI (EKVX NSCLC): 73.5 µM | TGI (HCC-2998 colon): 49.7 µM | TGI (HCT-116 colon): 65.4 µM | TGI (HCT-15 colon): 28.2 µM | TGI (HL-60(TB) leukemia): 35.7 µM | TGI (HOP-18 NSCLC): > 100 µM | TGI (HOP-62 NSCLC): 55.5 µM | TGI (HOP-92 NSCLC): 33.4 µM | TGI (HT29 colon): 30.1 µM | TGI (IGROV1 ovarian): 59.2 µM | TGI (K-562 leukemia): 28.3 µM | TGI (KM12 colon): 83.6 µM | TGI (KM20L2 colon): 52.2 µM | TGI (LOX IMVI melanoma): 30.4 µM | TGI (LXFL 529 NSCLC): 31.2 µM | TGI (M14 melanoma): 52.1 µM | TGI (M19-MEL melanoma): 36.1 µM | TGI (MALME-3M melanoma): 87.4 µM | TGI (NCI-H226 lung): 64.8 µM | TGI (NCI-H23 lung): 58.5 µM | TGI (NCI-H460 lung): 26.9 µM | TGI (NCI-H522 lung): 18.4 µM | TGI (OVCAR-3 ovarian): 35.3 µM | TGI (OVCAR-4 ovarian): > 100 µM | TGI (OVCAR-5 ovarian): 81.7 µM | TGI (OVCAR-8 ovarian): > 100 µM | TGI (RPMI-8226 leukemia): 79.3 µM | TGI (RXF 393 renal): 39.8 µM | TGI (SF-268 CNS): 60.3 µM | TGI (SF-295 CNS): 35.6 µM | TGI (SF-539 CNS): 41.2 µM | TGI (SK-MEL-2 melanoma): 39 µM | TGI (SK-MEL-5 melanoma): 38.9 µM | TGI (SK-OV-3 ovarian): 70.6 µM | TGI (SN12C renal): 44.4 µM | TGI (SNB-19 CNS): 54.2 µM | TGI (SNB-75 CNS): 95.2 µM | TGI (SNB-78 CNS): 70.2 µM | TGI (SW-620 colon): 31 µM | TGI (TK-10 renal): 85.2 µM | TGI (U251 CNS): 35.7 µM | TGI (UACC-257 melanoma): 67.5 µM | TGI (UACC-62 melanoma): 33.6 µM | TGI (UO-31 renal): 25.3 µM

— PubChem BioAssay (NCI)
